Converted amounts (≈) assume the structure as drawn.
Columns and labels:
M. smegmatis mc2 155 = test: Antimycobacterial activity (growth inhibition, MIC50) against M. smegmatis; format: cell-based; conditions: Mycolicibacterium smegmatis, MC2155, read-out: M. smeg., MIC50
M. tuberculosis H37Rv = test: Antimycobacterial activity (growth inhibition, MIC50) against Mtb; format: cell-based; conditions: for MIC50: Mycobacterium tuberculosis, H37RV, read-out: Mtb, MIC50, [μM)
M. bovis BCG cells = test: microbe, parasite or virus in culture; format: cell-based; conditions: Mycobacterium tuberculosis variant bovis BCG, read-out: IC50 for intracellular ATP synthesis inhibition
[1] = test system: human embryonic stem cell (hESC) line (E3); test: hESC line (E3) genotoxicity and transcriptional program assays; format: cell-based; conditions: racemate of (VI) 100 nM in combination with 300 nM of (II)
Text: Further, a human embryonic stem cell (hESC) line (E3) was used to examine both potential drug-induced genotoxicity and perturbations of the hESC transcriptional program that lead to hESC differentiation.

M. smegmatis mc^2 155 = test: Kill kinetics against M. smegmatis mc^2 155; format: cell-based; conditions: M. smegmatis mc^2 155, liquid culture, up to 4 days; (II) at 20-fold MIC50 (FIG. 1 legend 10×MIC50), BDQ 200×MIC50
[2] = test system: M. bovis bacillus Calmette-Guérin (BCG); test: microbe, parasite or virus in culture; format: cell-based; conditions: Mycobacterium tuberculosis variant bovis BCG, read-out: MIC50 in M. bovis BCG
[3] = Metabolic stability in mouse liver microsomes

CCNc1cc(C)nc(Nc2ccc3[nH]c(-c4ccccc4)nc3c2)n1
MIC50 (M. smegmatis mc2 155): 23.5 µM (≈ 8.09 µg/mL)
MIC50 (M. tuberculosis H37Rv): 8.8 µM (≈ 3.03 µg/mL)

CCSCCCOc1cccc(C(c2cc3cc(Br)ccc3nc2OC)C(O)(CCN(C)C)c2cc(OC)nc(OC)c2)c1OC (racemic) [Formula (VI)]
IC50 (M. bovis BCG cells): 3.4 nM
alterations in the global transcriptional program [1]: nor induced major alterations
genotoxic effects [1]: did not show substantial genotoxic effects

COc1nc2ccc(Br)cc2cc1[C@@H](c1ccccc1)[C@@](O)(CCN(C)C)c1cccc2ccccc12 [BDQ, Bedaquiline, reference compound]
bactericidal activity (kill kinetics) (M. smegmatis mc^2 155): delayed bactericidal activity
IC50 (M. bovis BCG cells): 11.5 nM

CCNc1cc(C)nc(Nc2ccc3nc(-c4cccc(Cl)c4)[nH]c3c2)n1 [Formula (III), N^2-(2-(3-Chlorophenyl)-1H-benzo[d]imidazol-5-yl)-N^4-ethyl-6-methylpyrimidine-2,4-diamine]
MIC50 (M. smegmatis mc2 155): 14.6 µM
MIC50 (M. tuberculosis H37Rv): 5.2 µM

CCNc1cc(C)nc(Nc2ccc3nc(-c4ccc(Cl)cc4)[nH]c3c2)n1 [Formula (II), N^2-(2-(4-Chlorophenyl)-1H-benzo[d]imidazol-5-yl)-N^4-ethyl-6-methylpyrimidine-2,4-diamine]
MIC50 (M. smegmatis mc2 155): 9.9 µM
fold improvement of MIC50 (M. tuberculosis H37Rv; Mtb H37Rv, compared with cpd6 of WO 2018/151681 A2): 10 fold
MIC50 (M. tuberculosis H37Rv): 3 µM
MIC50 [2]: 6.8 µM
bactericidal activity (kill kinetics) (M. smegmatis mc^2 155): bactericidal
IC50 (M. bovis BCG cells): 3300 nM
CIint [3]: 46.8
CLhep [3]: 60.5 mL/min/kg
T1/2 [3]: 29.6 min

— patent publication US12528793B2 (priority 2019, dated 2026)
